Laboratory results published in patent publication US20230286970A1, “NOVEL OXADIAZOLE-BASED SELECTIVE HDAC6 INHIBITORS” (ITALFARMACO S.P.A., priority 2020, published 2023).

Assays:
recombinant human HDAC1 = recombinant human HDAC1 (Homo sapiens (Human), UniProt Q13547); experiment: Enzymatic screening, HDAC1 inhibition (fluorogenic FdL_G substrate); format: biochemical
Outline: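 Recombinant human HDAC1 inhibition was measured fluorometrically using the FLUOR DE LYS-Green (FdL_G) substrate. Compounds at 8 doses (1% DMSO final) in Tris-HCl pH 8 buffer with NaCl, Tween-20 and glycerol were preincubated in triplicate with enzyme and 1 mg/mL BSA, then given substrate. Developer I plus 2 μM TSA was added, and fluorescence read after 25 minutes in the dark.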

recombinant human HDAC6 = recombinant human HDAC6 (Homo sapiens (Human), UniProt Q9UBN7); experiment: Enzymatic screening, HDAC6 inhibition (fluorogenic FdL_G substrate); format: biochemical
Sequence of recombinant human HDAC6 (Q9UBN7 whole entry): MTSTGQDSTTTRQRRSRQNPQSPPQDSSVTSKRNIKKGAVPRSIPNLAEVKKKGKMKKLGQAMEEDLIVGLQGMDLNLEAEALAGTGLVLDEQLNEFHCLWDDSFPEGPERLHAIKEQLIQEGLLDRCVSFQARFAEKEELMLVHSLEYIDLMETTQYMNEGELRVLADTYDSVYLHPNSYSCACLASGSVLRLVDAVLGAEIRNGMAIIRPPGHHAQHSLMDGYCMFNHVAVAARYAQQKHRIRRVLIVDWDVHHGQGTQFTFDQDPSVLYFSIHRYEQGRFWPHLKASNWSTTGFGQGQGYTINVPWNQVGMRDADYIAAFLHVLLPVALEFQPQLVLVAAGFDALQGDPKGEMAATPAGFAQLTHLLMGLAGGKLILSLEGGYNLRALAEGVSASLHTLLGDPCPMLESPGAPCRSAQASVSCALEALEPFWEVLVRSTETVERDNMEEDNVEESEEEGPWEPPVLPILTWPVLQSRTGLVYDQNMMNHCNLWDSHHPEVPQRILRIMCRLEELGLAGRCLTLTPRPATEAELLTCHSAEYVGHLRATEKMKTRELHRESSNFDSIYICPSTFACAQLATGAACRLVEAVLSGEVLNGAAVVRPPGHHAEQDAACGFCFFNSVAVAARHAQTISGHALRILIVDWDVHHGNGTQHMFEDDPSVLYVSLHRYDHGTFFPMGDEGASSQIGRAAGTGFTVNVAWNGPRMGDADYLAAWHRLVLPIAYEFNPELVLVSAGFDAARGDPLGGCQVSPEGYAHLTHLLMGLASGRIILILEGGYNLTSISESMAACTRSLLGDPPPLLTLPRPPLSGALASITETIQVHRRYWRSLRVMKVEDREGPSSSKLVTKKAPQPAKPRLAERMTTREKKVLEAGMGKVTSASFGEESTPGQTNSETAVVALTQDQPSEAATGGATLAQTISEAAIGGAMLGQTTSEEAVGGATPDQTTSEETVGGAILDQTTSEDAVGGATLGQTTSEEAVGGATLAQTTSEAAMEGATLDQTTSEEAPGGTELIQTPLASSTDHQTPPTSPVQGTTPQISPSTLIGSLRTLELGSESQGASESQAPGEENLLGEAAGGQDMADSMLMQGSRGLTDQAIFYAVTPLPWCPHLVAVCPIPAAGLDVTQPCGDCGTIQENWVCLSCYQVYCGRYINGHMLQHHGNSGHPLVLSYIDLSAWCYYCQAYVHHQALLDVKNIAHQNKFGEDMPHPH
Outline: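 Enzyme was preincubated with compound (8 doses, triplicate, 1% DMSO) in 25 mM Tris-HCl pH 8, 130 mM NaCl, 0.05% Tween-20, 10% glycerol, with BSA. A FLUOR DE LYS-Green substrate was then added, and fluorescence was read after developer plus 2 μM TSA.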

Sequence of recombinant human HDAC1 (Q13547 whole entry): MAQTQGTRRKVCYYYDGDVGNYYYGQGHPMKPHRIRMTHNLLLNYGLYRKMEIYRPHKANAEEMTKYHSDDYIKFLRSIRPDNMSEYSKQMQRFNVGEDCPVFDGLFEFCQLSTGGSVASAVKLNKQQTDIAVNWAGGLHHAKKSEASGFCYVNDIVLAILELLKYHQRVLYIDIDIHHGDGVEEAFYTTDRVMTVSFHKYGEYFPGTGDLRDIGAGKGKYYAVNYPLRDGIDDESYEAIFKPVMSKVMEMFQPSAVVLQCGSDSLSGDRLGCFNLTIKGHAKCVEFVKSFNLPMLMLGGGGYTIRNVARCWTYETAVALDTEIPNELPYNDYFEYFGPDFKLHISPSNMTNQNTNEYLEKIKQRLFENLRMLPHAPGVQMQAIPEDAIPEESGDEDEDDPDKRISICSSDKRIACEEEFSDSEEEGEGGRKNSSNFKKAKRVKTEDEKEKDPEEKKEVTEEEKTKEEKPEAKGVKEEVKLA

| SMILES | IC50 (recombinant human HDAC1) [nM] | IC50 (recombinant human HDAC6) [nM] |
| --- | --- | --- |
| Cn1c(N)nc2cc(-c3nnnn3Cc3ncc(-c4nnc(C(F)F)o4)cn3)ccc21 [compound 291, 5-(1-((5-(5-(difluoromethyl)-1,3,4-oxadiazol-2-yl)pyrimidin-2-yl)methyl)-1H-tetrazol-5-yl)-1-methyl-1H-benzo[d]imidazol-2-amine] | > 200000 | 129 |
| Nc1ccc(-c2cn([C@@H](CO)c3ccc(-c4nnc(C(F)F)o4)cc3)nn2)cn1 [compound 314, (2R)-2-[4-(6-aminopyridin-3-yl)triazol-1-yl]-2-[4-[5-(difluoromethyl)-1,3,4-oxadiazol-2-yl]phenyl]ethanol] | > 1e+06 | 22 |
| O=C1Nc2ccc(-c3cn(Cc4ccc(-c5nnc(C(F)F)o5)cn4)nn3)cc2C12CCCC2 [Compd. 26, 5′-(1-((5-(5-(difluoromethyl)-1,3,4-oxadiazol-2-yl)pyridin-2-yl)methyl)-1H-1,2,3-triazol-4-yl)spiro[cyclopentane-1,3′-indolin]-2′-one] | > 200000 | 8 |
| FC(F)c1nnc(-c2ccc(Cn3cc(-c4ccc5nc(Cl)[nH]c5c4)nn3)cc2)o1 [compound 136, 2-(4-((4-(2-chloro-1H-benzo[d]imidazol-6-yl)-1H-1,2,3-triazol-1-yl)methyl)phenyl)-5-(difluoromethyl)-1,3,4-oxadiazole] | > 200000 | 53 |
| FC(F)c1nnc(-c2ccc(Cn3nnc(-c4cccc(-c5cnn6c5CNCC6)c4)n3)cc2)o1 [compound 111, 2-(difluoromethyl)-5-(4-((5-(3-(4,5,6,7-tetrahydropyrazolo[1,5-a]pyrazin-3-yl)phenyl)-2H-tetrazol-2-yl)methyl)phenyl)-1,3,4-oxadiazole] | > 200000 | 42 |
| CNc1ccc(-c2nnn(Cc3ccc(-c4nnc(C(F)F)o4)cc3)n2)cc1N [compound 164, 4-(2-(4-(5-(difluoromethyl)-1,3,4-oxadiazol-2-yl)benzyl)-2H-tetrazol-5-yl)-N-1-methylbenzene-1,2-diamine] | > 200000 | 77 |
| CN1CCN(C(=O)Nc2cccc(-c3cn(Cc4c(F)cc(-c5nnc(C(F)F)o5)cc4F)nn3)c2)CC1 [compound 63, N-(3-(1-(4-(5-(difluoromethyl)-1,3,4-oxadiazol-2-yl)-2,6-difluorobenzyl)-1H-1,2,3-triazol-4-yl)phenyl)-4-methylpiperazine-1-carboxamide] | > 200000 | 28 |
| Nc1nc2ccc(-c3cn(Cc4ccc(-c5nnc(C(F)F)o5)cn4)cn3)cc2s1 [compound 307, 6-[1-[[5-[5-(difluoromethyl)-1,3,4-oxadiazol-2-yl]pyridin-2-yl]methyl]imidazol-4-yl]-1,3-benzothiazol-2-amine] | > 1e+06 | 11 |
| O=C1Nc2ccc(-c3cn(Cc4ccc(-c5nnc(C(F)F)o5)cc4)nn3)cc2C12CCCC2 [compound 61, 5′-(1-(4-(5-(difluoromethyl)-1,3,4-oxadiazol-2-yl)benzyl)-1H-1,2,3-triazol-4-yl)spiro[cyclopentane-1,3′-indolin]-2′-one] | > 200000 | 27 |
| CC(C)(C)OC(=O)N1CCC2(C1)C(=O)Nc1ccc(-c3cn(Cc4ccc(-c5nnc(C(F)F)o5)cc4)nn3)cc12 (centres unmarked) [compound 177, tert-butyl 5-(1-(4-(5-(difluoromethyl)-1,3,4-oxadiazol-2-yl)benzyl)-1H-1,2,3-triazol-4-yl)-2-oxospiro[indoline-3,3′-pyrrolidine]-1′-carboxylate] | > 200000 | 89 |
| NC(=O)c1cccc(-c2cnn(Cc3ccc(-c4nnc(C(F)F)o4)cn3)c2)c1 [compound 334, 3-[1-[[5-[5-(difluoromethyl)-1,3,4-oxadiazol-2-yl]pyridin-2-yl]methyl]pyrazol-4-yl]benzamide] | > 1e+06 | 65 |
| Nc1cc(-c2nnn(Cc3c(F)cc(-c4nnc(C(F)F)o4)cc3F)n2)ccc1OC(=O)N1CCOCC1 [compound 160, 2-amino-4-(2-(4-(5-(difluoromethyl)-1,3,4-oxadiazol-2-yl)-2,6-difluorobenzyl)-2H-tetrazol-5-yl)phenyl morpholine-4-carboxylate] | > 200000 | 74 |
| Nc1ccc(-c2cn(C(CC3CCC3)c3ccc(-c4nnc(C(F)F)o4)cc3)nn2)cn1 (centres unmarked) [Compd. 242, 5-(1-(2-cyclobutyl-1-(4-(5-(difluoromethyl)-1,3,4-oxadiazol-2-yl)phenyl)ethyl)-1H-1,2,3-triazol-4-yl)pyridin-2-amine] | > 200000 | 252 |
| O=C1NCCc2ccc(-c3nnn(Cc4ccc(-c5nnc(C(F)F)o5)cc4)n3)cc21 [compound 83, 7-[2-[[4-[5-(difluoromethyl)-1,3,4-oxadiazol-2-yl]phenyl]methyl]tetrazol-5-yl]-3,4-dihydro-2H-isoquinolin-1-one] | > 200000 | 33 |
| Fc1cc(Cn2cnc(-c3ccc(NC4=NCCN4)cc3)c2)ccc1-c1nnc(C(F)F)o1 [compound 360, N-[4-[1-[[4-[5-(difluoromethyl)-1,3,4-oxadiazol-2-yl]-3-fluorophenyl]methyl]imidazol-4-yl]phenyl]-4,5-dihydro-1H-imidazol-2-amine] | > 1e+06 | 18 |
| FC(F)c1nnc(-c2ccc(Cn3nnc(-c4cncc5ccccc45)n3)cc2)o1 [compound 118, 2-(difluoromethyl)-5-(4-((5-(isoquinolin-4-yl)-2H-tetrazol-2-yl)methyl)phenyl)-1,3,4-oxadiazole] | > 200000 | 44 |
| CC(c1ccc(-c2nnc(C(F)F)o2)cn1)n1cc(-c2cccc(NC(=O)N3CCOCC3)c2)nn1 (centres unmarked) [compound 66, N-(3-(1-(1-(5-(5-(difluoromethyl)-1,3,4-oxadiazol-2-yl)pyridin-2-yl)ethyl)-1H-1,2,3-triazol-4-yl)phenyl)morpholine-4-carboxamide] | > 200000 | 28 |
| Nc1cc(-c2nnn(Cc3ccc(-c4nnc(C(F)F)o4)cc3)n2)ccc1O [compound 35, 2-amino-4-(2-(4-(5-(difluoromethyl)-1,3,4-oxadiazol-2-yl)benzyl)-2H-tetrazol-5-yl)phenol] | > 200000 | 16 |
| Cn1c(N)nc2cc(-c3cn(Cc4ccc(-c5nnc(C(F)F)o5)cc4F)nn3)ccc21 [compound 378, 5-[1-[[4-[5-(difluoromethyl)-1,3,4-oxadiazol-2-yl]-2-fluorophenyl]methyl]triazol-4-yl]-1-methylbenzimidazol-2-amine] | 199000 | 17 |
| CC(C)(C)OC(=O)N1CCC2(CC1)Nc1cc(-c3cn(Cc4ccc(-c5nnc(C(F)F)o5)cc4)nn3)ccc1NC2=O [compound 268, tert-butyl 7′-(1-(4-(5-(difluoromethyl)-1,3,4-oxadiazol-2-yl)benzyl)-1H-1,2,3-triazol-4-yl)-3′-oxo-3′,4′-dihydro-1′H-spiro[piperidine-4,2′-quinoxaline]-1-carboxylate] | > 200000 | 254 |
| [2H]C([2H])(c1ccc(-c2nnc(C(F)F)o2)cc1)n1cc(-c2ccc(N)nc2)nn1 [compound 356, 5-[1-[dideuterio-[4-[5-(difluoromethyl)-1,3,4-oxadiazol-2-yl]phenyl]methyl]triazol-4-yl]pyridin-2-amine] | > 1e+06 | 43 |
| CC1(C)CN(c2cccc(-c3cn(Cc4c(F)cc(-c5nnc(C(F)F)o5)cc4F)nn3)c2)C1=O [compound 92, 1-(3-(1-(4-(5-(difluoromethyl)-1,3,4-oxadiazol-2-yl)-2,6-difluorobenzyl)-1H-1,2,3-triazol-4-yl)phenyl)-3,3-dimethylazetidin-2-one] | > 200000 | 35 |
| FC(F)c1nnc(-c2ccc(Cn3cc(-c4ccc5nc(N6CCCC6)[nH]c5c4)nn3)cc2)o1 [compd. 190, 2-(difluoromethyl)-5-(4-((4-(2-(pyrrolidin-1-yl)-1H-benzo[d]imidazol-6-yl)-1H-1,2,3-triazol-1-yl)methyl)phenyl)-1,3,4-oxadiazole] | > 200000 | 99 |
| O=C1NCc2ccc(-c3cnn(Cc4ccc(-c5nnc(C(F)F)o5)cn4)c3)cc21 [compound 318, 6-[1-[[5-[5-(difluoromethyl)-1,3,4-oxadiazol-2-yl]pyridin-2-yl]methyl]pyrazol-4-yl]-2,3-dihydroisoindol-1-one] | > 1e+06 | 40 |
| Nc1nccc2cc(-c3nnn(Cc4ccc(-c5nnc(C(F)F)o5)cc4Cl)n3)ccc12 [compound 422, 6-(2-(2-chloro-4-(5-(difluoromethyl)-1,3,4-oxadiazol-2-yl)benzyl)-2H-tetrazol-5-yl)isoquinolin-1-amine] | 1e+06 | 249 |
| Nc1nc2ccc(-n3cc(Cc4ccc(-c5nnc(C(F)F)o5)cc4)nn3)cc2s1 [compd. 377, 6-[4-[[4-[5-(difluoromethyl)-1,3,4-oxadiazol-2-yl]phenyl]methyl]triazol-1-yl]-1,3-benzothiazol-2-amine] | > 1e+06 | 370 |
| FC(F)c1nnc(-c2ccc(Cn3nnc(-c4ccc(N5CCNCC5)nc4)n3)cc2)o1 [compound 148, 2-(difluoromethyl)-5-(4-((5-(6-(piperazin-1-yl)pyridin-3-yl)-2H-tetrazol-2-yl)methyl)phenyl)-1,3,4-oxadiazole] | > 200000 | 63 |
| [2H]C([2H])(c1ccc(-c2nnc(C(F)F)o2)c(F)c1F)n1cc(-c2ccc(N)nc2)nn1 [compound 385, 5-[1-[dideuterio-[4-[5-(difluoromethyl)-1,3,4-oxadiazol-2-yl]-2,3-difluorophenyl]methyl]triazol-4-yl]pyridin-2-amine] | 1e+06 | 30 |
